Here are results for three molecules from patent publication US7122668B2, “Platinum complexes and their use in therapy” (priority 2002, dated 2006).

Series [1] deals with calf thymus DNA. Briefly: DNA binding (calf thymus DNA platination). The conditions noted are these: listed as trans-[PtCl2(NH3)(pip)]. The protocol: The formation of calf thymus DNA platination was also examined. To this end, calf thymus DNA was incubated with different compounds (Table 3) in which the following parameters were determined: […]
Series [2] has as its system Ubiquitin and Heart Myoglobin. The note with it: 1:1 reaction, 1–2 mM, 10 mM phosphate buffer, pH 6.4, 37° C.
Procedure: Since most platinum(II) derivatives which are administered intravenously become protein bound within 24 hr, the binding kinetics of two model proteins, Ubiquitin (MW 8565) and Heart Myoglobin (MW 16951), to Pt complexes was determined. To this end, a 1:1 reaction between the platinum complexes and the proteins were carried out at 1–2 mM concentrations, in 10 mM phosphate buffer, pH 6.4 at 37° C. Protein binding kinetics were measured directly on the reaction mixtures, by Electrospray Ionization Mass Spectrometry (ESI-MS).
The conditions of series [3]: cited from earlier work.
Series [4] can be described thus: In vivo toxicity. The arrangement: species or system BALB/C mice. The conditions noted are these: 5 mg/kg, i.v., three times at weekly intervals.
The subject of series [5] is C-26 colon carcinoma. Kind of series: In vivo antitumor efficacy. Details: species or system BALB/C mice. The note with it: 5 mg/kg, three injections at weekly intervals from day 3 after i.p. tumor inoculation. The method, then: Female BALB/C mice (in the weight range of 17–20 g) were injected i.p. with 1*10^6 C-26 colon carcinomas.
Treatment began at day 3 after tumor inoculation and was repeated twice for a total of three injections at weekly intervals.
Female BALB/C mice (in the weight range of 17–20 gr) were injected i.p. with 1*10^6 C-26 colon carcinomas.
Treatment was as performed according to the schedule described above.

For series [6], the system named is plasmid pS16-hGH DNA. Kind of series: Determination of Pt-DNA adducts by EtBr fluorescence. The format is binding. The conditions noted are these: DNA modified 24 hr. The method, then: A plasmid (4.8 kbp) containing a gene coding for human growth hormone, plasmid pS16-hGH, was prepared as previously described^(23). The freshly prepared DNA was analyzed by agarose gel (1%) electrophoresis using post-staining with SYBR Green I fluorescent dye (Molecular Probes, Eugene, Oreg.). […] The ratio of absorbance at 260 nm to that at 280 nm was always between 1.8 and 1.9.
DNA were modified by the platinum complexes in 10 mM NaClO4 (pH 7.0) at 37° C. in the dark for 24 hr. Measurements of EtBr fluorescence were performed on an LS50B luminescence spectrometer (Perkin Elmer, Norwalk, Conn.). Fluorescence measurements of DNA modified by platinum in the presence of EtBr were performed using the excitation wavelength of 546 nm (slit 10 run) and emission wavelength of 590 nm (slit 10 nm) at 25° C. The concentrations were 0.01 mg/ml for DNA and 0.04 mg/ml for EtBr, which corresponded to the saturation of all intercalation sites of EtBr in DNA.
EtBr, as the fluorescent probe, was used to distinguish between perturbations induced in DNA by adducts of platinum (II) compounds^(14). Binding of EtBr by intercalation is blocked in a stoichiometric manner by formation of the bifunctional adducts, as of Cis-Pt, which results in a loss of fluorescence intensity. On the other hand, formation of monofunctional adducts results only in a slight decrease of EtBr fluorescence.

With `C1CCNCC1.N.[Cl][Pt][Cl]` [Complex 1, Trans-[PtCl2(NH3)(piperidine)]], in series [1], the “% IEC/adduct, frequency of interstrand crosslinks” value is on record as 26% and the “unwinding angle per adduct” value was 52.8°. The “ΔTm, 0.01M Na+” value in series [1] (rb = 0.05, 0.01M Na+) is “+7.6 0.C”. Besides, in series [1] (rb = 0.05, 0.2 M), the “ΔTm, 0.2 M” value is on record as −1.9 0.C. For the same molecule, the “ΔΔεmax, maximum of the positive CD band at around 275 nm” value in series [1] (rb = 0.05, difference between control and platinated DNA) came out at 0.15. Besides, in series [2], the “binding to the proteins” value was “binds rapidly”.
On to trans-[PtCl(PyAc—N,O)(NH3)], for which, in series [3], the solubility in water was 4 to 5 mM.
For `C1CCN(C2CCNCC2)CC1.N.[Cl][Pt][Cl]` [Complex 3, Trans-[PtCl2(NH3)(4-piperidino-piperidine)]], in series [4], the “toxicity (animal weight and survival)” value is given as “non-toxic”. In series [5], the “Increase in life span” value was found to be 108% and the Survival is given as 24 ± 3 days. Also, the “decrease of EtBr fluorescence intensity by DNA adducts” value in series [6] is “The best adduct”.
